Literature values in patent publication US20140134224A1, “STABLE COMPOSITION OF HOCI, A PROCESS FOR ITS PRODUCTION AND USES THEREOF” (priority 2011, published 2014).
Where two headings read alike, the source gives them in different places.

How the values were obtained:
B. metiens spores = details: 25 ppm available chlorine
[1] = unstabilised HOCl solutions of the prior art
[2] = Kapoor 1968

SMILES | time taken to produce a 99% kill of spores (B. metiens spores; pH 6) [min] | time taken to produce a 99% kill of spores (B. metiens spores; pH 7) [min] | time taken to produce a 99% kill of spores (B. metiens spores; pH 8) [min] | time taken to produce a 99% kill of spores (B. metiens spores; pH 9) [min] | time taken to produce a 99% kill of spores (B. metiens spores; pH 9.35) [min] | time taken to produce a 99% kill of spores (B. metiens spores; pH 10) [min] | time taken to produce a 99% kill of spores (B. metiens spores; pH 12.86) [min] | half-life [1] | times less effective than hypochlorous acid as a disinfectant [2]
OCl [HOCl, Hypochlorous (or hydrochlorous) acid] | 2.5 | 3.6 | 5 | 19.5 | 35.5 | 131 | 465 | around 48 hours | 
OCl [hypochlorite ion, hypochlorite] |  |  |  |  |  |  |  |  | up to 120 times
